Test results taken from patent US11638737B2, “Food compositions and pharmaceutical compositions containing Filipendula glaberrima extract for lowering blood cholesterol levels and for ameliorating atherosclerosis” (KOREA INSTITUTE OF SCIENCE AND TECHNOLOGY, priority 2019, dated 2023).
In brackets after ≈: the same amount, converted by molar mass.

Key:
[1] = system: lipid peroxide formation in liver homogenate; test: Lipid peroxide production inhibitory effect (LPO) in rat liver homogenate; format: biochemical, Sprague-Dawley rats; details: for IC50: samples marked (μM)
Experimental: The lipid peroxide production inhibitory effect (LPO) of the extract and the isolated compounds were tested. Lipid peroxide is a substance produced by peroxidation of lipids through various oxidation reactions. Reactive oxygen species, free radicals and the like oxidize phospholipids of cell membranes containing great amounts of unsaturated fatty acids, producing lipid peroxides in the cell membranes. When the lipid peroxides are accumulated in the cell membranes, the fluidity and functionality of the cell membrane are deteriorated, resulting in local disorders in tissues such as inhibition of cell functions and changes in cell structures.
Therefore, the effects of inhibiting lipid peroxide production by the Filipendula glaberrima leaf and stem extracts and the isolated compounds were measured as follows. The animals used in the experiment were male Sprague-Dawley rats, and only water was supplied for 24 hours before the experiment. […] The experimental animals were subjected to respiratory anesthesia with isoflurane, and dissected and a 0.15 M ice-cold KCl solution was perfused through the liver portal vein to remove blood from the liver and extract the liver. […] 50 mM Tris-HCl buffer (pH 7.5) was added to 300 μl of a liver homogenate (11 mg protein/ml), 10 μM FeSO4, 10 μl of a test drug and 0.4 mM ascorbic acid to adjust the total volume to 1 ml, and then the resulting mixture was incubated at 37° C. for 30 minutes.

HMG-CoA reductase = molecular target: T1, HMG-CoA reductase (Homo sapiens, UniProt P04035); test: HMG-CoA reductase inhibitory effect (modified Perchellet's assay, absorbance at 340 nm); format: biochemical; details: mean ± standard error; values without (μM) mark
T1 construct: purchased Sigma-Aldrich (St. Louis, Mo.)
T1 sequence (P04035 426-888 limits assumed): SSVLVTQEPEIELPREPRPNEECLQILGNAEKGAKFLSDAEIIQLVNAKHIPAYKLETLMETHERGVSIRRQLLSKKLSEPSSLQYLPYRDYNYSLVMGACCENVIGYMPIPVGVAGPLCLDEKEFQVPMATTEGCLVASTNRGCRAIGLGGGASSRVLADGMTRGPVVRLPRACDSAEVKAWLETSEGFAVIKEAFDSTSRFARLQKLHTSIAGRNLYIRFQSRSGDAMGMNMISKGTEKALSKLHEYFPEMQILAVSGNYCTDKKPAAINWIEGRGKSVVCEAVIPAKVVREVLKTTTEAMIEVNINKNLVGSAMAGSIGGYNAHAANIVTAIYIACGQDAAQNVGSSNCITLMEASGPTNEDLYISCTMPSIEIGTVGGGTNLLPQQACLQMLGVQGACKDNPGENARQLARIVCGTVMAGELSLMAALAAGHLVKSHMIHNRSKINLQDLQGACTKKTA
Experimental: Transparent 96-well plates were purchased from SPL Lifesciences (Pocheon). A VERSA Max™ microplate reader from Molecular Devices was used.
The sample for detection was dissolved in DMSO before use.
The activity of HMG-CoA reductase was compared and analyzed by recording the absorbance at 340 nm at 37° C. for 10 minutes using a VERSA Max™ microplate reader. […] The experiment was repeated three times.

[2] = DPPH radical scavenging effect; details: samples marked (μM); read-out: SC50 DPPH radical
From the text: Data are expressed as an average of measurements conducted in triplicate.

[3] = Xanthine/xanthine oxidase-induced superoxide anion scavenging effect; format: biochemical; details: samples marked (μM); read-out: SC50 Superoxide anion radical (O2−)
Experimental: Specifically, 0.1 mM xanthine, 0.1 mM EDTA, 50 μg/ml of bovine serum albumin (BSA), […] nitroblue tetrazolium (NBT), a 40 mM Na2CO3 solution, a test sample solution diluted at each concentration and a solution with a final volume of 200 μl containing 1.4×10^−3 unit XOD were mixed and reacted at 25° C. for 20 minutes.

Oc1ccc(C=Cc2cc(O)cc(O)c2)cc1 [Resveratrol]
IC50 [1]: 35.64 ± 0.01 µM

C[C@@H]1CC[C@]2(C(=O)O[C@@H]3OC(COC(=O)c4cc(O)c(O)c(O)c4)[C@@H](O)[C@H](O)C3O)CC[C@]3(C)C(=CC[C@@H]4[C@@]5(C)C[C@@H](O)[C@H](O)C(C)(C)[C@@H]5CC[C@]43C)[C@@H]2[C@]1(C)O (some centres unmarked) [Compound 1]
IC50 (HMG-CoA reductase): 175 ± 2.2 µM | IC50 [1]: 89 ± 3.69 µM | IC50 [2]: 47.88 ± 0.01 µM

Cc1c(C)c2c(c(C)c1O)CCC(C)(C(=O)O)O2 (centres unmarked) [Trolox]
IC50 [1]: > 50 µM | IC50 [3]: > 50 µM | IC50 [2]: 47.5 ± 0.41 µM

O=C1O[C@H]([C@@H](O)CO)C(O)=C1O [Vit. C, ascorbic acid]
IC50 [3]: > 50 µM | IC50 [2]: 29.3 ± 2.49 µM

O=c1c(O)c(-c2ccc(O)c(O)c2)oc2cc(O)cc(O)c12 [Quercetin]
IC50 LPO ([1]; rat liver homogenate, FeSO4/ascorbic acid, TBA, 535 nm): 29.57 ± 1.32 µg/mL (≈ 97.8 µM) | IC50 [1]: 29.6 ± 1.32 µM | IC50 [3]: > 50 µM | IC50 [2]: 19 ± 2.25 µM

COC(=O)c1cc(O)c(O)c(O)c1Oc1cc2c(c(O)c1O)-c1c(cc(O)c(O)c1O)C(=O)O[C@@H]1C(COC2=O)OC(O)C(OC(=O)c2cc(O)c(O)c(O)c2)C1OC(=O)c1cc(O)c(O)c(O)c1 (some centres unmarked) [Compound 2]
IC50 (HMG-CoA reductase): 1.46 ± 0.22 µM | IC50 [1]: 7.99 ± 0.05 µM | IC50 [3]: 41.1 ± 2.24 µM | IC50 [2]: 3.62 ± 0.57 µM
